Several values for one entry are separate records, joined by “and”; a condition that tells them apart may be missing. Equal entries are not always repeated. A value given as a limit tells only on which side of the number the result lay.

The subject of this experiment is HCV replicon. The class given is cell-based.
As a reminder, the IC50 is the concentration that inhibits the measured activity by half. Read a low IC50 as inhibition by little substance. Compound `COc1ccc2c(C#N)c(-c3ccc(NC(=O)NC(C)C)cc3)n(CC3CC3)c2c1` [Compound 987] yielded an IC50 of 0.5 to 2 µM.
In turn, `CCS(=O)(=O)Nc1ccc(-c2c(C#N)c3ccc(OC)cc3n2COC)cc1` [Compound 988] showed an IC50 of 0.5 to 2 µM.
The figure for `COCn1c(-c2ccc(N3CCCS3(=O)=O)cc2)c(C#N)c2ccc(OC)cc21` [Compound 990] is 0.5 to 2 µM.
The figure for `CCCOC(=O)Nc1ccc(-c2c(C#N)c3ccc(OC)cc3n2COC)cc1` [Compound 993] is 0.5 to 2 µM; for `CCn1c(-c2ccc(N3CC(=O)NC3=O)cc2)c(C#N)c2ccc(OC)cc21` [Compound 994] it is 0.5 to 2 µM.
The figure for `CCCn1c(-c2ccc(NS(C)(=O)=O)cc2)c(C#N)c2cc(OC)ccc21` [Compound 995] is 0.5 to 2 µM; for `CCCn1c(-c2ccc(NS(=O)(=O)CC)cc2)c(C#N)c2cc(OC)ccc21` [Compound 996] it is < 0.5 µM and 0.5 to 2 µM; for `CCCn1c(-c2ccc(NS(=O)(=O)C(C)C)cc2)c(C#N)c2cc(OC)ccc21` [Compound 997] it is 0.5 to 2 µM.
Consider `CCCn1c(-c2ccc(NS(=O)(=O)C3CC3)cc2)c(C#N)c2cc(OC)ccc21` [Compound 998], for which the IC50 was 0.5 to 2 µM.
In turn, `CCCn1c(-c2ccc(NC(=O)NCC)cc2)c(C#N)c2cc(OC)ccc21` [Compound 999] displayed an IC50 of 0.5 to 2 µM.
With `CCCNC(=O)Nc1ccc(-c2c(C#N)c3cc(OC)ccc3n2CCC)cc1` [Compound 1000] the figure was 0.5 to 2 µM; with `C=CCNC(=O)Nc1ccc(-c2c(C#N)c3cc(OC)ccc3n2CCC)cc1` [Compound 1001], 0.5 to 2 µM.
In the case of `CCn1c(-c2ccc(N(C)S(C)(=O)=O)cc2)c(C#N)c2ccc(C(F)(F)F)cc21` [Compound 1002], the IC50 lay within 0.5 to 2 µM.
With `CCN(c1ccc(-c2c(C#N)c3ccc(C(F)(F)F)cc3n2CC)cc1)S(C)(=O)=O` [Compound 1003] the figure was 0.5 to 2 µM; with `CCn1c(-c2ccc(N(C)S(=O)(=O)CC)cc2)c(C#N)c2ccc(C(F)(F)F)cc21` [Compound 1005], 0.5 to 2 µM; with `CCN(c1ccc(-c2c(C#N)c3ccc(C(F)(F)F)cc3n2CC)cc1)S(=O)(=O)CC` [Compound 1006], < 0.5 µM and 0.5 to 2 µM.
With `CCCN(c1ccc(-c2c(C#N)c3ccc(C(F)(F)F)cc3n2CC)cc1)S(=O)(=O)CC` [Compound 1007], the IC50 was less than 0.5 µM.
The figure for `CCCCNC(=O)Nc1ccc(-c2c(C#N)c3cc(OC)ccc3n2CCC)cc1` [Compound 1008] is 0.5 to 2 µM.
The figure for `CCNC(=O)Nc1ccc(-c2c(C#N)c3cc(OC)ccc3n2CC)cc1` [Compound 1009] is 0.5 to 2 µM; for `CCCNC(=O)Nc1ccc(-c2c(C#N)c3cc(OC)ccc3n2CC)cc1` [Compound 1010] it is 0.5 to 2 µM.
The figure for `CCCCNC(=O)Nc1ccc(-c2c(C#N)c3cc(OC)ccc3n2CC)cc1` [Compound 1012] is 0.5 to 2 µM; for `C=CCNC(=O)Nc1ccc(-c2c(C#N)c3cc(OC)ccc3n2CC)cc1` [Compound 1013] it is 0.5 to 2 µM.
In turn, `CCCCn1c(-c2ccc(NC(=O)NCC)cc2)c(C#N)c2ccc(OCC)cc21` [Compound 1016] registered an IC50 of 0.5 to 2 µM.
With `CCCCn1c(-c2ccc(NC(=O)NC(C)C)cc2)c(C#N)c2ccc(OCC)cc21` [Compound 1017] the figure was less than 0.5 µM; with `CCCCNC(=O)Nc1ccc(-c2c(C#N)c3ccc(OCC)cc3n2CCCC)cc1` [Compound 1018], less than 0.5 µM; with `CCCCn1c(-c2ccc(NC(=O)NCCc3ccccc3)cc2)c(C#N)c2ccc(OCC)cc21` [Compound 1019], less than 0.5 µM.
For the compound `CCCCn1c(-c2cccc(NC(=O)OCC)c2)c(C#N)c2ccc(OCC)cc21` [Compound 1020], the IC50 was < 0.5 µM and 0.5 to 2 µM.
With `CCCCn1c(-c2cccc(NC(=O)OCCC)c2)c(C#N)c2ccc(OCC)cc21` [Compound 1021] the figure was less than 0.5 µM.
With `CCCCn1c(-c2cccc(NC(=O)OCCC)c2)c(C#N)c2ccc(OCC)cc21` [Compound 1022] the figure was < 0.5 µM and > 2 µM.
The figure for `CCCCNC(=O)Nc1cccc(-c2c(C#N)c3ccc(OCC)cc3n2CCCC)c1` [Compound 1023] is 0.5 to 2 µM; for `CCCCn1c(-c2cccc(NC(=O)NCCc3ccccc3)c2)c(C#N)c2ccc(OCC)cc21` [Compound 1024] it is less than 0.5 µM.
`CCn1c(-c2ccc(NC(=O)C3CC3)cc2)c(C#N)c2ccc(OCCN3CCOCC3)cc21` [Compound 1025]: the IC50 was 0.5 to 2 µM.
On to `CCn1c(-c2ccc(N3CCCS3(=O)=O)cc2)c(C#N)c2ccc(OC(F)F)cc21` [Compound 1026], for which the IC50 is 0.5 to 2 µM and < 0.5 µM.
`CCOc1ccc2c(C#N)c(-c3ccc(NC(=O)NC4CCCC4)cc3)n(C3CCC3)c2c1` [Compound 1027]: the IC50 is less than 0.5 µM.
Compound `CCn1c(-c2cccc(NC(=O)Oc3ccc(OC)cc3)c2)c(C#N)c2ccc(OCCCCl)cc21` [Compound 1028] showed an IC50 of less than 0.5 µM.
With `CCn1c(-c2ccc(NC(=O)OC)cc2)c(C#N)c2ccc(OCCCCl)cc21` [Compound 1029] the figure was 0.5 to 2 µM; with `CCCOC(=O)Nc1ccc(-c2c(C#N)c3ccc(OCCCCl)cc3n2CC)cc1` [Compound 1030], less than 0.5 µM.
The figure for `CCOC(=O)Nc1ccc(-c2c(C#N)c3ccc(OCCCCl)cc3n2CC)cc1` [Compound 1031] is less than 0.5 µM; for `CCn1c(-c2ccc(NC(=O)OCCF)cc2)c(C#N)c2ccc(OCCCCl)cc21` [Compound 1033] it is less than 0.5 µM; for `CCCOC(=O)Nc1cccc(-c2c(C#N)c3ccc(OCCCN4CCOCC4)cc3n2CC)c1` [Compound 1034] it is less than 0.5 µM.
The figure for `CCn1c(-c2cccc(NS(=O)(=O)CC)c2)c(C#N)c2ccc(OCCCN3CCOCC3)cc21` [Compound 1035] is 0.5 to 2 µM; for `CCn1c(-c2cccc(NC(=O)NCCCl)c2)c(C#N)c2ccc(OCCCN3CCOCC3)cc21` [Compound 1036] it is 0.5 to 2 µM; for `CCOc1ccc2c(C#N)c(-c3cccc(NC(=O)OCC(C)C)c3)n(C3CCC3)c2c1` [Compound 1037] it is 0.5 to 2 µM.
Consider `CCn1c(-c2ccc(NS(=O)(=O)C3CC3)cc2)c(C#N)c2cc3c(cc21)OCO3` [Compound 1038], for which the IC50 lay in the range of 0.5 to 2 µM.
With `CCn1c(-c2ccc(NC(=O)NC(C)C)cc2)c(C#N)c2cc3c(cc21)OCO3` [Compound 1039] the figure was 0.5 to 2 µM; with `CCn1c(-c2ccc(NC(=O)OC(C)C)cc2)c(C#N)c2cc3c(cc21)OCO3` [Compound 1040], 0.5 to 2 µM; with `CCCn1c(-c2ccc(NS(=O)(=O)CCC)cc2)c(C#N)c2cc(OC)ccc21` [Compound 1041], 0.5 to 2 µM and < 0.5 µM.
`CCCCOC(=O)Nc1cccc(-c2c(C#N)c3ccc(OCCCN4CCOCC4)cc3n2CC)c1` [Compound 1042] registered an IC50 of 0.5 to 2 µM.
With `CCNC(=O)Nc1cccc(-c2c(C#N)c3ccc(OCCCN4CCOCC4)cc3n2CC)c1` [Compound 1043] the figure was 0.5 to 2 µM; with `CCn1c(-c2cccc(NC(=O)OCCCl)c2)c(C#N)c2ccc(OCCCN3CCOCC3)cc21` [Compound 1044], less than 0.5 µM.
With `CCNC(=O)Nc1cccc(-c2c(C#N)c3ccc(OCCCN4CCCC4)cc3n2CC)c1` [Compound 1045] the figure was less than 0.5 µM; with `CCn1c(-c2ccc(NS(=O)(=O)C3CC3)cc2)c(C#N)c2ccc(OC3CC3)cc21` [Compound 1047], less than 0.5 µM; with `CCn1c(-c2ccc(NC(=O)OC(C)(C)C)cc2)c(C#N)c2ccc(Br)cc21` [Compound 1048], 0.5 to 2 µM.
